Test: xn = mol fraction of the nth substance listed
Settings: 323.15 K, Fluid (supercritical or subcritical phases)

CCCCC [pentane] + O=C=O
Settings | mass density [kg/m3]
2770 kPa, x2 = 0.214 | 612
3730 kPa, x2 = 0.36 | 633
3800 kPa, x2 = 0.214 | 617
4510 kPa, x2 = 0.36 | 635
5380 kPa, x2 = 0.36 | 636
5920 kPa, x2 = 0.214 | 623
6240 kPa, x2 = 0.36 | 640
6870 kPa, x2 = 0.671 | 707
7170 kPa, x2 = 0.36 | 643
7390 kPa, x2 = 0.791 | 655
7500 kPa, x2 = 0.671 | 713
7530 kPa, x2 = 0.214 | 627
7770 kPa, x2 = 0.791 | 663
8020 kPa, x2 = 0.87 | 577
8150 kPa, x2 = 0.36 | 645
8150 kPa, x2 = 0.87 | 584
8220 kPa, x2 = 0.916 | 454
8230 kPa, x2 = 0.916 | 458
8240 kPa, x2 = 0.916 | 460
8240 kPa, x2 = 0.939 | 352
8260 kPa, x2 = 0.87 | 590
8270 kPa, x2 = 0.916 | 468
8270 kPa, x2 = 0.939 | 356
8280 kPa, x2 = 0.791 | 670
8290 kPa, x2 = 0.939 | 358
8310 kPa, x2 = 0.939 | 361
8320 kPa, x2 = 0.916 | 475
8330 kPa, x2 = 0.939 | 363
8370 kPa, x2 = 0.671 | 719
8370 kPa, x2 = 0.916 | 483
8380 kPa, x2 = 0.939 | 368
8390 kPa, x2 = 0.901 | 515
8410 kPa, x2 = 0.916 | 491
8420 kPa, x2 = 0.87 | 597
8420 kPa, x2 = 0.939 | 375
8430 kPa, x2 = 0.901 | 520
8450 kPa, x2 = 0.916 | 499
8460 kPa, x2 = 0.901 | 524
8460 kPa, x2 = 0.939 | 380
8500 kPa, x2 = 0.901 | 529
8500 kPa, x2 = 0.916 | 508
8500 kPa, x2 = 0.939 | 386
8530 kPa, x2 = 0.901 | 533
8540 kPa, x2 = 0.939 | 393
8550 kPa, x2 = 0.87 | 602
8570 kPa, x2 = 0.901 | 538
8570 kPa, x2 = 0.916 | 517
8570 kPa, x2 = 0.939 | 399
8620 kPa, x2 = 0.901 | 542
8620 kPa, x2 = 0.939 | 406
8650 kPa, x2 = 0.916 | 527
8660 kPa, x2 = 0.939 | 413
8670 kPa, x2 = 0.901 | 548
8700 kPa, x2 = 0.939 | 420
8710 kPa, x2 = 0.87 | 610
8710 kPa, x2 = 0.901 | 552
8710 kPa, x2 = 0.916 | 536
8740 kPa, x2 = 0.939 | 428
8760 kPa, x2 = 0.901 | 558
8810 kPa, x2 = 0.916 | 546
8810 kPa, x2 = 0.939 | 436
8830 kPa, x2 = 0.901 | 562
8850 kPa, x2 = 0.939 | 444
8860 kPa, x2 = 0.791 | 681
8890 kPa, x2 = 0.901 | 568
8890 kPa, x2 = 0.939 | 453
8920 kPa, x2 = 0.87 | 619
8930 kPa, x2 = 0.916 | 556
8950 kPa, x2 = 0.939 | 461
8980 kPa, x2 = 0.901 | 573
9010 kPa, x2 = 0.939 | 470
9050 kPa, x2 = 0.901 | 579
9070 kPa, x2 = 0.916 | 568
9070 kPa, x2 = 0.939 | 479
9120 kPa, x2 = 0.87 | 624
9140 kPa, x2 = 0.901 | 583
9140 kPa, x2 = 0.939 | 489
9210 kPa, x2 = 0.939 | 500
9230 kPa, x2 = 0.901 | 590
9240 kPa, x2 = 0.916 | 579
9280 kPa, x2 = 0.36 | 647
9300 kPa, x2 = 0.939 | 511
9350 kPa, x2 = 0.901 | 595

Reference: the NIST ThermoML archive (doi:10.1021/je034087q)
